Source: ChEMBL document CHEMBL5113373, “Tryptophan derived natural marine alkaloids and synthetic derivatives as promising antimicrobial agents” (Eur J Med Chem, 2021)
In brackets after ≈: the same amount, converted by molar mass.

Assays:
Candida albicans [1] = assay: Antifungal activity against Candida albicans assessed as fungal growth inhibition; format: functional, organism-based
Hepatitis C virus = assay: Antiviral activity against HCV J8CC infected in human Huh7.5 cells assessed as viral growth inhibition incubated for 48 hrs by light microscopy; format: functional, organism-based, Hepacivirus hominis; conditions: Huh7.5, 48 h
Vibrio natriegens = assay: Antimicrobial activity against Vibrio natriegens ATCC 14048 assessed as microbial growth inhibition incubated for 48 hrs by spectrophotometry; format: functional
Candida albicans [2] = assay: Antifungal activity against Candida albicans ATCC 2091 assessed as fungal growth inhibition incubated for 24 hrs by agar diffusion method; format: functional
Staphylococcus aureus [3] = assay: Antibacterial activity against Staphylococcus aureus ATCC 6538 assessed as bacterial growth inhibition incubated for 24 hrs by agar diffusion method; format: functional
Pseudomonas aeruginosa [4] = assay: Antibacterial activity against Pseudomonas aeruginosa ATCC 9027 assessed as bacterial growth inhibition incubated for 24 hrs by agar diffusion method; format: functional
[5] = system: Mycobacterium tuberculosis; assay: Antibacterial activity against […] assessed as bacterial growth inhibition; format: functional
Aspergillus niger = assay: Antifungal activity against Aspergillus niger assessed as fungal growth inhibition; format: functional, organism-based
[6] = system: Trichophyton mentagrophytes; assay: Antifungal activity against Trichophyton mentagrophytes assessed as fungal growth inhibition; format: functional, organism-based
Cryptococcus neoformans = assay: Antifungal activity against Cryptococcus neoformans assessed as fungal growth inhibition; format: functional, organism-based
Pseudomonas aeruginosa [7] = assay: Antibiofilm activity against Pseudomonas aeruginosa assessed as inhibition of biofilm formation incubated for 24 hrs by crystal violet method; format: functional, organism-based
Saccharomyces cerevisiae = assay: Antifungal activity against Saccharomyces cerevisiae assessed as fungal growth inhibition; format: functional, organism-based
Micrococcus luteus = assay: Antibacterial activity against Micrococcus luteus assessed as bacterial growth inhibition; format: functional, organism-based
Mycolicibacterium phlei = assay: Antibacterial activity against Mycobacterium phlei assessed as bacterial growth inhibition; format: functional, organism-based
Escherichia coli [8] = assay: Antibiofilm activity against Escherichia coli K12 ER2718 assessed as inhibition of biofilm formation incubated for 24 hrs by crystal violet method; format: functional, organism-based; conditions: K12 ER2718, 24 h
Staphylococcus aureus [9] = assay: Antibiofilm activity against Staphylococcus aureus ATCC 29213 assessed as inhibition of biofilm formation incubated for 24 hrs by crystal violet method; format: functional, organism-based; conditions: ATCC 29213, 24 h
Candida albicans [10] = assay: Antimicrobial activity against Candida albicans assessed as microbial growth inhibition measured after 24 hrs by agar dilution method; format: functional
Staphylococcus aureus [11] = assay: Antimicrobial activity against methicillin-resistant Staphylococcus aureus assessed as microbial growth inhibition by broth microdilution method; format: functional
Escherichia coli [12] = assay: Antimicrobial activity against Escherichia coli assessed as microbial growth inhibition by microdilution method; format: functional
Candida albicans [13] = assay: Antimicrobial activity against Candida albicans assessed as microbial growth inhibition by microdilution method; format: functional
Escherichia coli [14] = assay: Antibacterial activity against Escherichia coli assessed as bacterial growth inhibition; format: functional
Bacillus subtilis = assay: Antibacterial activity against Bacillus subtilis assessed as bacterial growth inhibition; format: functional, organism-based
Acinetobacter baumannii = assay: Antibacterial activity against Acinetobacter baumannii ATCC 19606 assessed as bacterial growth inhibition incubated for 24 hrs by broth micro dilution method; format: functional
Staphylococcus aureus [15] = assay: Antibiofilm activity against Staphylococcus aureus ATCC 6538 assessed as inhibition of biofilm formation incubated for 24 hrs by crystal violet method; format: functional, organism-based; conditions: ATCC 6538, 24 h

## C[N+](C)(C)CC(c1c[nH]c2ccccc12)c1c(O)c(O)c2c3c(nccc13)C=CN2 (stereo not given)
Candida albicans [1]
  IC50: 19.9 µM

## CC(C)[C@@H]1NC(=O)[C@@H](C[C@@]2(O)c3ccccc3N3C(=O)C(C)(C)N[C@@H]32)n2c1nc1ccccc1c2=O
Hepatitis C virus
  EC50: 129 µM

## CC(C)CC(=O)Nc1c(O)c(C(C[N+](C)(C)C)c2c[nH]c3cc(Br)ccc23)c2ccnc3c2c1NC=C3 (stereo not given)
Candida albicans [1]
  IC50: 14.2 µM

## C/N=C1\NC(Cc2c[nH]c3cc(Br)c(Br)cc23)C(=O)N1C (stereo not given)
Vibrio natriegens
  MIC: 2.4 µM (≈ 0.994 µg/mL)

## O=C(O)c1c(-c2c[nH]c3cc(O)ccc23)ncc2[nH]c3ccc(O)cc3c12
Candida albicans [2]
  diameter of the inhibition zone (DIZ): 9 mm
Staphylococcus aureus [3]
  diameter of the inhibition zone (DIZ): 10 mm
Pseudomonas aeruginosa [4]
  diameter of the inhibition zone (DIZ): 7 mm

## C=CC(C)(C)c1[nH]c2ccccc2c1/C=c1\[nH]c(=O)c2n(c1=O)CCC=2C1=c2c(=O)[nH]/c(=C\c3c(C(C)(C)C=C)[nH]c4ccccc34)c(=O)n2CC1
[5]
  MIC: 9 µM (≈ 6.24 µg/mL)

## Brc1ccc2c(-c3nc(-c4c[nH]c5ccccc45)c[nH]3)c[nH]c2c1 [NORTOPSENTIN B]
Candida albicans [1]
  IC50: 6.8 µM

## NC(=O)c1c(-c2c[nH]c3cc(O)ccc23)ncc2[nH]c3ccc(O)cc3c12
Candida albicans [2]
  diameter of the inhibition zone (DIZ): 9 mm
Staphylococcus aureus [3]
  diameter of the inhibition zone (DIZ): 10 mm
Pseudomonas aeruginosa [4]
  diameter of the inhibition zone (DIZ): 7 mm

## O=C(c1c[nH]c2ccc(O)cc12)[C@H](O)[C@@H](O)C(=O)c1c[nH]c2ccc(O)cc12
Aspergillus niger
  IC50: 21 µM
[6]
  IC50: 42.1 µM

## CSc1c(-c2c(-c3c[nH]c4ccc(O)cc34)c(=O)n3c4ccc(O)cc4c4ccnc2c43)[n+](C)cn1C
Candida albicans [1]
  IC50: 7.9 µM
[6]
  MIC: 31.5 µM
Cryptococcus neoformans
  IC50: 7.9 µM

## C[N+](C)(C)CC(c1c[nH]c2cc(Br)ccc12)c1c2ccnc3c2c(c2nc(CS(=O)(=O)[O-])oc12)NC=C3 (stereo not given)
Aspergillus niger
  MIC: 27.5 µM (≈ 16 µg/mL)

## Cn1cc(-c2csc(-c3cn(CCN)c4ccc(F)cc34)n2)c2ccccc21
Pseudomonas aeruginosa [7]
  IC50: 9.9 µM

## C=CC(C)(C)c1c(CCNC)c2ccc(Br)cc2n1CC=C(C)C
Saccharomyces cerevisiae
  IC50: 17.9 µM
Micrococcus luteus
  IC50: 5.9 µM
Mycolicibacterium phlei
  IC50: 7.7 µM

## C=CC(C)(C)c1c(CCNC)c2ccccc2n1CC=C(C)C
Micrococcus luteus
  IC50: 22.6 µM
Mycolicibacterium phlei
  IC50: 7.7 µM

## O=C1NC(C(=O)c2c[nH]c3ccc(O)cc23)c2c(O)ccc3[nH]cc(c23)C1=O (stereo not given)
Aspergillus niger
  IC50: 21.3 µM
[6]
  IC50: 42.6 µM

## COc1ccc2[nH]c3cnc(-c4c[nH]c5cc(O)ccc45)c(C(=O)O)c3c2c1
Candida albicans [2]
  diameter of the inhibition zone (DIZ): 9 mm
Staphylococcus aureus [3]
  diameter of the inhibition zone (DIZ): 10 mm
Pseudomonas aeruginosa [4]
  diameter of the inhibition zone (DIZ): 7 mm

## C=CC(C)(C)c1[nH]c2cc(Br)ccc2c1CCNC [DESFORMYLFLUSTRABROMINE]
Escherichia coli [8]
  IC50: 174 µM
Staphylococcus aureus [9]
  IC50: 70 µM

## Cn1cnc(C(=O)c2nc3c4c5c(nccc5c(C(C[N+](C)(C)C)c5c[nH]c6cc(Br)ccc56)c3o2)C=CN4)c1 (stereo not given)
Aspergillus niger
  MIC: 26.8 µM

## O=C1N[C@H]2c3nc4ccccc4c(=O)n3[C@H]1C[C@@]1(O)c3ccccc3N3C(=O)C4(CC4)N2[C@@H]31
Candida albicans [10]
  MIC: 22.6 µM (≈ 9.98 µg/mL)

## O=C1Nc2ccccc2[C@@]1(O)Cc1cncc(Cc2c[nH]c3ccccc23)n1
Staphylococcus aureus [11]
  MIC: 32.4 µM (≈ 12 µg/mL)
Escherichia coli [12]
  MIC: 27 µM
Candida albicans [13]
  MIC: 32.4 µM

## CO[C@@H]1c2c[nH]c3ccc(O)c(c23)C(c2c[nH]c3ccc(O)cc23)=N[C@@H]1C(C)=O
Escherichia coli [14]
  MIC: 41.1 µM (≈ 16 µg/mL)
Bacillus subtilis
  MIC: 41.1 µM (≈ 16 µg/mL)

## C[C@@H]1N[C@H]2N(C1=O)c1ccccc1[C@@]2(O)C[C@H](C(=O)O)n1cnc2ccccc2c1=O
Acinetobacter baumannii
  MIC: 14.9 µM (≈ 6.26 µg/mL)

## COCCn1cc(-c2nc(-c3c[nH]c4ccccc34)cs2)c2cc(F)ccc21
Staphylococcus aureus [15]
  IC50: 0.7 µM
